Test results reported in patent publication US20150353495A1 (PORTOLA PHARMACEUTICALS, INC., priority 2010, published 2015).

Experiments:
Assay type in all cases: biochemical
[1] = molecular target: T1, full length active recombinant SYK enzyme (Homo sapiens, UniProt P43405); assay: Inhibition of Syk tyrosine phosphorylation activity (LANCE TR-FRET)
T1 construct: full length active recombinant SYK enzyme (Millipore, Calif.); purchased Millipore
From the text: This example illustrates methods for evaluating the compounds of the invention, along with results obtained for such assays. The in vitro and in vivo human Syk activities of the inventive compounds can be determined by various procedures known in the art, such as a test for their ability to inhibit the activity of human plasma Syk. […] The IC50 value is the concentration (in nM) of the compound required to provide 50% inhibition of human Syk proteolytic activity.
An in vitro assay for detecting and measuring inhibition activity against Syk is as follows:
Inhibition of Syk Tyrosine Phosphorylation Activity
Potency of candidate molecules for inhibiting Syk tyrosine phosphorylation activity is assessed by measuring the ability of a test compound to inhibit Syk-mediated tyrosine phosphorylation of a Syk-specific substrate.
SYK tyrosine phosphorylation activity is measured using the LANCE™ Technology developed by Perkin Elmer Life and Analytical Sciences (Boston, Mass.). LANCE™ refers to homogeneous time resolved fluorometry applications using techniques such as time-resolved fluorescence resonance energy transfer assay (TR-FRET) (see generally for procedures in Perkin Elmer Application Note-How to Optimize a Tyrosine Kinase Assay Using Time Resolved Fluorescence-Based LANCE Detection, wwww.perkinelmer.com/lifesciences). The assay principle involves detection of a phosphorylated substrate using energy transfer from a phosphospecific europium-labeled antibody to streptavidin-allophycocyanin as an acceptor.
To test the ability of candidate molecules to inhibit SYK tyrosine phosphorylation activity, molecules are reconstituted in 30% DMSO and serially diluted 1:3 with the final dilution containing DMSO in the absence of the candidate molecule. The final DMSO concentration in the assay is 3%. Kinase assays are performed as a two part reaction. The first reaction is a kinase reaction and which comprises of a candidate molecule, full length active recombinant SYK enzyme (Millipore, Calif.) and biotin-labeled SYK-specific substrate biotin-[…]-OH. The second reaction involves termination of the kinase reaction and the simultaneous addition of the detection reagents-europium-labeled anti-phosphotyrosine reagent (Eu-W1024-PY100, Perkin Elmer, Boston, Mass.) and Streptavidin-Allophycocyanin detection reagent (SA-APC, Prozyme, CA). The kinase reaction is performed in a black U-bottom 96-well microtitre plate. The final reaction volume is 50 μL and contains a final concentration of 1 nM active SYK enzyme, 550 nM SYK-substrate, and 100 nM ATP diluted in a buffer containing 50 mM Tris pH 7.5, 5 mM MgCl2, and 1 mM DTT. The reaction is allowed to proceed for 1 hour at room temperature. The quench buffer contains 100 mM Tris pH 7.5, 300 mM NaCl2, 20 mM EDTA, 0.02% Brij35, and 0.5% BSA. The detection reagents are added to the reaction mixture at the following dilutions-1:500 for Eu-W1024-PY100 and 1:250 for SA-APC. The kinase reaction is terminated by the addition of 50 μL quench buffer containing the detection reagents. […] Detection of the phosphorlated substrate in the absence and presence of inhibitors is measured in the TR-FRET instrument, Analyst HT (Molecular Probes, Sunnyvale, Calif.) and the condition for measurements are set up using CriterionHost Release 2.0 (Molecular Probes, Sunnyvale, Calif.). […] Inhibition of SYK-tyrosine kinase activity is calculated as the maximum response observed in the presence of inhibitor, compared to that in the absence of inhibitor. […]

[2] = molecular target: T2, JAK1 (Homo sapiens, UniProt P23458); assay: Z'-LYTE kinase assay JAK1
T2 construct: 5 μl of catalytic domain recombinant Kinase enzyme+Tyr peptide substrate (Invitrogen, CA); purchased Invitrogen
Method in brief: (§1)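 Catalytic-domain recombinant kinase was incubated with Tyr6 FRET peptide, ATP and compound (1% DMSO final) for 1 h at room temperature. Protease development followed for 1 h, cleaving only non-phosphorylated peptide. Inhibition of phosphorylation was read as coumarin/fluorescein FRET fluorescence.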

[3] = molecular target: T3, JAK3 (Homo sapiens, UniProt P52333); assay: Z'-LYTE kinase assay JAK3
T3 construct: 5 μl of catalytic domain recombinant Kinase enzyme+Tyr peptide substrate (Invitrogen, CA); purchased Invitrogen
Method in brief: as §1

T3 sequence (P52333 822-1111 limits assumed): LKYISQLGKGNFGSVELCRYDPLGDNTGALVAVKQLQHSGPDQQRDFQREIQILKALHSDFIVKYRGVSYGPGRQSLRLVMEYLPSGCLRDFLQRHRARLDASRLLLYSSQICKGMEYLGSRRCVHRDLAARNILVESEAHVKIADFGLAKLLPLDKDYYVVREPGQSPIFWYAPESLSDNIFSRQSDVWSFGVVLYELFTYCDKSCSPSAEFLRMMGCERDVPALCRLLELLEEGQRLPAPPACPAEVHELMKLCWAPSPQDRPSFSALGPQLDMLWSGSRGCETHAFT
T2 sequence (P23458 875-1153 limits assumed): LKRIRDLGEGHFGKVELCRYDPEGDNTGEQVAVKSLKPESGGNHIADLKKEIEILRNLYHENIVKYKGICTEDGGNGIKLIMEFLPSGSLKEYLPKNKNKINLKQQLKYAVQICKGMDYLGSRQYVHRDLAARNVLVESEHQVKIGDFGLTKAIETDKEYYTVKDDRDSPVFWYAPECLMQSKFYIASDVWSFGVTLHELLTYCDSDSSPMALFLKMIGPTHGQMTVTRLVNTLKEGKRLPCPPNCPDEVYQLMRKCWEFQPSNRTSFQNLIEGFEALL

IC50 [1] [nM] | IC50 [2] [nM] | IC50 [3] [nM] | SMILES
> 1000 | 100 to 1000 | 1 to 10 | CC(=O)N1CCN(c2ccc(Nc3cc(NCc4cccc(F)c4)c(C(N)=O)cn3)cc2)CC1 [Example 229]
> 1000 | 100 to 1000 | 10 to 100 | CC(=O)N1CCN(c2ccc(Nc3cc(NC4CC4)c(C(N)=O)cn3)cc2)CC1 [Example 2]
